SMILES strings stand for the structures.

The test system of test [1] is passive cutaneous anaphylaxis (DNP-As homocytotropic antiserum). The test can be described thus: passive cutaneous anaphylatic assay (PCA) in rats. In kind it is in vivo, Wistar strain rats. The following applies: 10 mg/kg orally, one hour before antigen; for inhibition in vivo at 10 mg/kg: Rattus norvegicus, po, 1 h, read-out: PCA Inhibition Ratio %; for PCA Inhibition Ratio %: listed as H. The procedure:
(§1) The compounds of the present invention have been evaluated for their anti-allergenic action by passive cutaneous anaphylatic assay (PCA) in rats and by measuring the anti-SRS-A action using ileus of guinea pigs.
(i) Antiserum abundant in homocytotropic antibody is prepared by the same method as Tada and Okumura did (cf. Journal of Immunology, vol. 106, page 1002, 1971). Thus, 1 mg (calculated as an amount of protein) of DNP-As (2,4-dinitrophenylcoupled ascaris extract) prepared by methods of Strejan and Campbell (Journal of Immunology, vol. 98, p. 893, 1967) and of Eisen (Journal of Amer. Chem. Soc., vol. 75, p 4593, 1953) and 1×10^10pertussis vaccine are administered to each paw of Wistar strain rats (180 to 200 grams body weights) by dividing the dose by four. Five days later, 0.5 mg of DNP-As is administered into muscle of back. Eight days later from the initial immunization, blood is taken from discending aorta under anesthetizing with ether, the resulting serum is stored at -80° and is melted before use.
(ii) Effect of tested compounds is investigated as follows:
Anti-serum obtained by th method (i) is diluted with physiological saline solution double by double successively and 0.05 ml of each diluted solution is administered into the back of Wistar strain rats (140 to 160 grams body weight) intradermally. After 72 hours, a solution of 2 mg (calculated as protein) of DNP-As and 2.5 mg of Evans Blue dissolved in 1 ml of physiological saline solution is administered intraveously at a dose of 5 ml/kg. After 30 minutes from the antigen solution administration, the animals are killed and the diameters of blue spots which appeared at the place where antiserum was administered were measured. The PCA test is conducted by the same method as already described using a diluted solutions of antiserum which always show 10 mm or more of spot diameters and the effect of the test compounds is judged. Thus antiserum diluted solutions are administered into two places in the back. Test compounds are administered orally at the dose of 10 mg/kg one hour before administration of the antigen solution. From the skin of reacted parts of killed animals, leaked or emitted dyestuff is extracted and the amount of the dyestuff is measured. The inhibition ratio is calculated by the following expression: [formula] in which A' is an amount of dyestuff in the group treated with the test compounds and A is that in the control group.

The subject of test [2] is SRS-A (slow reacting substance of anaphylaxis) contraction of ileum. Kind of test: Anti-SRS-A action using ileus of guinea pigs. It is filed as cell-based, Hartley strain male guinea pigs. The settings on record: 5 min, guinea pig ileum, SRS-A 20 units, compound five minutes before; for inhibition at 1 µM: Cavia porcellus, 1/1000 mM, read-out: 1/1000 mM SRS-A Inhibition Ratio %. The procedure: as §1
Anti-SRS-A action (An anti-acton against slow reacting substance of anaphylaxis).
Hartley strain male guinea pigs (300 to 350 grams body weight) are killed and 1.0 to 1.5 cm of ileum is immeidiately excised from ileocecal parts and is suspended in 10 ml of Tyrode solution (95% 02 -5% CO2 saturation) containing 10^-7 g/ml of atropine and 10^-6 g/ml of pyrilamine. SRS-A (20 units) (the amount of SRS-A showing the same contradiction as 5 ng of histamine is defined as 1 unit) prepared by using sensitized guinea pig lung is given to cause contraction there. Then antagonistic action of test compounds treated five minutes ago against the contraction is measured and recorded via isotonic transducer. [formula] in which A' is a height of contraction of SRS-A+test compound and A is that of SRS-A.

As for `CC(C)c1ccc(-c2cc(=O)c3cc(C(=O)O)ccc3[nH]2)cc1` [Example 49], the inhibition in vivo at 10 mg/kg in test [1] was 25.2%. In addition, the inhibition at 1 µM in test [2] turned out to be 18.8%.
As to `CCCCCc1ccc(-c2cc(=O)c3cc(C(=O)OC)ccc3[nH]2)cc1` [Example 50], the inhibition in vivo at 10 mg/kg in test [1] was found to be 19.4%. Moreover, the inhibition at 1 µM in test [2] is 36%.
In the same order, the values of `CCCCCc1ccc(-c2cc(=O)c3cc(C(=O)O)ccc3[nH]2)cc1` [Example 51] are 22.7% and 61.4%.
In the same order, the values of `COC(=O)c1ccc2[nH]c(-c3cccc(C(F)(F)F)c3)cc(=O)c2c1` [Example 52] are 25% and 21.3%.
The like results for `O=C(O)c1ccc2[nH]c(-c3cccc(C(F)(F)F)c3)cc(=O)c2c1` [Example 53] were, in that order, 22.4% and 30%.
In the case of `COC(=O)c1ccc2[nH]c(-c3ccc(C)cc3C)cc(=O)c2c1` [Example 54], the inhibition in vivo at 10 mg/kg in test [1] was 18.9%. In addition, the inhibition at 1 µM in test [2] was found to be 22.4%.
`Cc1ccc(-c2cc(=O)c3cc(C(=O)O)ccc3[nH]2)c(C)c1` [Example 55]: in test [1], the inhibition in vivo at 10 mg/kg was found to be 16.8%. Further, the inhibition at 1 µM in test [2] was determined as 17.5%.
The like results for `COc1ccccc1C1=Nc2ccc(C(=O)O)cc2C(=O)C1` [Example 57, 2-(2-methoxyphenyl)-4-quinolone-6-carboxylic acid] were, in that order, 20.4% and 27.7%.
As for `CCOc1ccccc1-c1cc(=O)c2cc(C(=O)OC)ccc2[nH]1` [Example 58], in test [1], the inhibition in vivo at 10 mg/kg was determined as 23.1%. Moreover, the inhibition at 1 µM in test [2] was 63%.
The like results for `CCOc1ccccc1-c1cc(=O)c2cc(C(=O)O)ccc2[nH]1` [Example 59] were, in that order, 15.8% and 24.6%.
In the same order, the values of `COC(=O)c1ccc2[nH]c(-c3ccccc3OC(C)C)cc(=O)c2c1` [Example 60] are 21.2% and 58.8%.
The like results for `CC(C)Oc1ccccc1-c1cc(=O)c2cc(C(=O)O)ccc2[nH]1` [Example 61] were, in that order, 20.1% and 31.8%.
For the compound `COC(=O)c1ccc2[nH]c(-c3ccc(OC)cc3)cc(=O)c2c1` [Example 62], the inhibition in vivo at 10 mg/kg in test [1] was 19%. Besides, the inhibition at 1 µM in test [2] was 27.4%.
The like results for `COc1ccc(-c2cc(=O)c3cc(C(=O)O)ccc3[nH]2)cc1` [Example 63] were, in that order, 18.4% and 23%.
On to `COc1ccc(-c2cc(=O)c3cc(C(=O)O)ccc3[nH]2)c(OC)c1` [Example 65], for which the inhibition in vivo at 10 mg/kg in test [1] turned out to be 26.9%. Moreover, the inhibition at 1 µM in test [2] was 27.3%.
The like results for `COC(=O)c1ccc2[nH]c(-c3ccc(OC)c(OC)c3)cc(=O)c2c1` [Example 66] were, in that order, 25.4% and 25.7%.
The like results for `COc1ccc(-c2cc(=O)c3cc(C(=O)O)ccc3[nH]2)cc1OC` [Example 67] were, in that order, 17.4% and 25%.
Consider `COC(=O)c1ccc(-c2cc(=O)c3cc(C(=O)OC)ccc3[nH]2)cc1` [Example 68], for which the inhibition in vivo at 10 mg/kg in test [1] was 19.8%. In test [2], the inhibition at 1 µM turned out to be 36.8%.
The like results for `O=C(O)c1ccc(-c2cc(=O)c3cc(C(=O)O)ccc3[nH]2)cc1` [Example 69] were, in that order, 25.8% and 27.9%.
The like results for `O=C(O)c1ccc2[nH]c(-c3ccncc3)cc(=O)c2c1` [Example 71] were, in that order, 25.6% and 25%.
The like results for `COC(=O)c1ccc2[nH]c(-c3cccnc3)cc(=O)c2c1` [Example 72] were, in that order, 17.8% and 22%.
As to `O=C(O)c1ccc2[nH]c(-c3cccnc3)cc(=O)c2c1` [Example 73], in test [1], the inhibition in vivo at 10 mg/kg was determined as 20.4%. Besides, the inhibition at 1 µM in test [2] was determined as 23.8%.
In the same order, the values of `COC(=O)c1ccc2[nH]c(-c3ccccn3)cc(=O)c2c1` [Example 74] are 23.1% and 25%.
On to `O=C(O)c1ccc2[nH]c(-c3ccccn3)cc(=O)c2c1` [Example 75], for which the inhibition in vivo at 10 mg/kg in test [1] worked out at 20.4%. The inhibition at 1 µM in test [2] amounted to 28.9%.
In the same order, the values of `O=C(O)c1ccc2[nH]c(-c3ccco3)cc(=O)c2c1` [Example 77] are 17.4% and 21%.
Take `COC(=O)c1ccc2[nH]c(-c3cccs3)cc(=O)c2c1` [Example 78]: the inhibition in vivo at 10 mg/kg in test [1] is 26.7%. In test [2], the inhibition at 1 µM was 23.3%.
The like results for `O=C(O)c1ccc2[nH]c(-c3cccs3)cc(=O)c2c1` [Example 79] were, in that order, 19.8% and 19.5%.
`O=C(O)c1cccc2c(=O)cc(-c3ccccc3)[nH]c12` [Example 81]: the “PCA Inhibition Ratio %” value in test [1] (H) stood at 35.3%. For the same compound, the inhibition at 1 µM in test [2] turned out to be 26.4%.
As to `O=C(O)c1cccc2c(=O)cc(-c3ccccc3)[nH]c12` [Example 82], the “PCA Inhibition Ratio %” value in test [1] (Na salt) is on record as 10.0%. For the same compound, in test [2] (listed as H, Na salt, 1 µM), the “1/1000 mM SRS-A Inhibition Ratio %” value is 27.3%.
Consider `O=C(O)c1cccc2c(=O)cc(-c3cccc(Cl)c3)[nH]c12` [Example 87], for which the inhibition in vivo at 10 mg/kg in test [1] was 19.3%. In test [2], the inhibition at 1 µM came out at 20.7%.
In the same order, the values of `COC(=O)c1cccc2c(=O)cc(-c3ccc(Cl)cc3Cl)[nH]c12` [Example 88] are 17.5% and 45.5%.
In the same order, the values of `O=C(O)c1cccc2c(=O)cc(-c3ccc(Cl)cc3Cl)[nH]c12` [Example 90] are 23.4% and 53.6%.
In the same order, the values of `O=C(O)c1cccc2c(=O)cc(-c3ccc(Cl)c(Cl)c3)[nH]c12` [Example 91] are 22.7% and 24.2%.
For the compound `Cc1ccc(-c2cc(=O)c3cccc(C(=O)O)c3[nH]2)cc1` [Example 93], the inhibition in vivo at 10 mg/kg in test [1] turned out to be 23.5%. Also, in test [2], the inhibition at 1 µM was determined as 26.7%.
In the same order, the values of `Cc1ccc(-c2cc(=O)c3cccc(C(=O)O)c3[nH]2)c(C)c1` [Example 95] are 24.2% and 22.8%.
The like results for `CCCCCCCCc1ccc(-c2cc(=O)c3cccc(C(=O)OCC)c3[nH]2)cc1` [Example 96] were, in that order, 21.5% and 23.8%.
As for `CCCCCCCCc1ccc(-c2cc(=O)c3cccc(C(=O)O)c3[nH]2)cc1` [Example 97], the inhibition in vivo at 10 mg/kg in test [1] worked out at 22%. The inhibition at 1 µM in test [2] was 33.7%.
The like results for `COC(=O)c1cccc2c1N=C(c1ccccc1Cl)CC2=O` [Example 101, Methyl 2-(2-chlorophenyl)-4-quinolone-8-carboxylate] were, in that order, 17.4% and 14.7%.
The like results for `CCOC(=O)c1cccc2c(=O)cc(-c3ccc(Cl)cc3)[nH]c12` [Example 103] were, in that order, 14.7% and 12.4%.
The like results for `CCOC(=O)c1cccc2c(=O)cc(-c3ccc(C)c(C)c3)[nH]c12` [Example 105] were, in that order, 17.3% and 10.4%.
Turning to `CCCOC(=O)c1cccc2c(=O)cc(-c3ccccc3Cl)[nH]c12` [Example 111], the inhibition in vivo at 10 mg/kg in test [1] was found to be 2.4%. Besides, the inhibition at 1 µM in test [2] worked out at 7.8%.
For `CCCCCCOC(=O)c1cccc2c(=O)cc(-c3ccccc3Cl)[nH]c12` [Example 113], the inhibition in vivo at 10 mg/kg in test [1] is 10.5%. For the same compound, the inhibition at 1 µM in test [2] was 20.5%.
In the same order, the values of `O=C(OCCCO)c1cccc2c(=O)cc(-c3ccccc3Cl)[nH]c12` [Example 115] are 12.4% and 27.4%.

(Values after patent US4711898A, “4-quinolone derivatives having anti-inflammatory, anti-allergic, antitussive, expectorant and antithrombotic activity” (Nippon Shinyaku Co., Ltd., priority 1982, dated 1987).)
